# Experimental data reported in US12655142B2 (Merck Patent GmbH, priority 2019, dated 2026).
# Key:
# c-Kit(V654A) = target: T1, c-Kit(V654A) (Homo sapiens, UniProt P10721, V654A); experiment: c-Kit(V654A) assay (33P-ATP filter binding kinase assay); assay type: biochemical; conditions: recombinant human c-Kit aa 544-end V654A, ATP 200 μM
# T1 construct: recombinant human c-Kit, amino acids 544-end containing the V654A mutation; GST (N)
# Procedure, shortened: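 Radiometric filter-binding read-out: substrate 33P incorporation counted by scintillation after P30 filtermat washes in 75 mM phosphoric acid and methanol. Enzyme: N-GST recombinant human c-Kit aa 544-end carrying V654A.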
# [1] = Determination of Efflux-Ratio (ER) in Caco-2 cells; conditions: human, Caco-2, pH 7.4
# [2] = target: T2, GIST430/654 cell line expressing mutated constitutively active cKIT receptor tyrosine kinase (Δ560-576 deletion and V654A point mutation) (Homo sapiens, UniProt P10721, DEL560-576/V654A); experiment: Cellular cKIT autophosphorylation (phospho-Y307-cKIT, Luminex bead assay) in GIST430/654 cells; assay type: cell-based; conditions: compounds 45 min, read-out: GIST 430/654 IC50
# T2 construct: endogenous in cells; host or cells: GIST430/654 cells
# T2 sequence (P10721 with tags, fused parts or gaps DEL560-576/V654A): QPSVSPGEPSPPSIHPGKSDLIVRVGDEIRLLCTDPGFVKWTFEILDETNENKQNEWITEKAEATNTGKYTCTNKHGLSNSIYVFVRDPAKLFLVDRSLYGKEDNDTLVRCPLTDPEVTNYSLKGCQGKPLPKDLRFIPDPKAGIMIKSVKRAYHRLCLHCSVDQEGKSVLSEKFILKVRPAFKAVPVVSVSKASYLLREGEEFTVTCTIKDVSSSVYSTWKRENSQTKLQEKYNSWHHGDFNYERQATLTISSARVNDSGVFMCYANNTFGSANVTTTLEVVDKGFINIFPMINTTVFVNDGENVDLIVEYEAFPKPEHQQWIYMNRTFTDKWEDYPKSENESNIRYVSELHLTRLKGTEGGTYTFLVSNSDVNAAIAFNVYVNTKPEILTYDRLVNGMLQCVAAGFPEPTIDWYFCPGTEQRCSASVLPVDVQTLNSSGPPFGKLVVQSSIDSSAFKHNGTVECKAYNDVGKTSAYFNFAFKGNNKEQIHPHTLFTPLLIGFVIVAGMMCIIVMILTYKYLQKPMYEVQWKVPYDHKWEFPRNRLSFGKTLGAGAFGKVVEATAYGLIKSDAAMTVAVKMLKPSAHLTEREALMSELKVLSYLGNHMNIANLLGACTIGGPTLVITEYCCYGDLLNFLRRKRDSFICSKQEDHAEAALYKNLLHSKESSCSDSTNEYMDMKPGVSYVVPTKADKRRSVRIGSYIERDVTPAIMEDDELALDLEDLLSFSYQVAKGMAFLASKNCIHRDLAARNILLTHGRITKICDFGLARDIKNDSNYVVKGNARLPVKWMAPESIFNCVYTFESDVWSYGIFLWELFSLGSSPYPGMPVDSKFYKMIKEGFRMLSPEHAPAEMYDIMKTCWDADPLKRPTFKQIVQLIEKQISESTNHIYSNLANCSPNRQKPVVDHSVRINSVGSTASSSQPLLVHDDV
# Procedure, shortened: (§1)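 GIST430 (Δ560-576) and imatinib-resistant GIST430/654 (plus V654A; grown with 100 nM imatinib) cells were plated in IMDM/15% FCS and treated next day with serially diluted compound for 45 min. Lysates were captured on anti-total-cKIT Luminex beads overnight at 4 °C and probed for phospho-Y307. IC50 was taken from percent of 0.3% DMSO control.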
# [3] = Determination of solubility; conditions: 20 mM Sorensen phosphate buffer, pH 7.4, aqueous buffer, kinetic from dmso stock
# Method: In a 96 well filtration plate, 2 μL of a 10 mM solution of the test compound in DMSO is added to 98 μL of 20 mM Sorensen phosphate buffer with pH 7.4. The mixture is incubated at room temperature for 120 min while agitating at 250 rpm followed by centrifugation at 2500 rpm for 3 min. After dilution by a factor of 2, the concentration of the test compound is determined using HPLC/UPLC with detection at a suitable wavelength and by comparison to a corresponding compound standard.
# [4] = target: T3, GIST430 cell line expressing constitutive active cKIT receptor tyrosine kinase (Δ560-576 deletion) (Homo sapiens, UniProt P10721, DEL560-576); experiment: Cellular cKIT autophosphorylation (phospho-Y307-cKIT, Luminex bead assay) in GIST430 cells; assay type: cell-based; conditions: cKIT autophosphorylation, GIST430 cells, compounds 45 min; read-out: GIST 430 IC50
# T3 construct: endogenous in cells; host or cells: GIST430 cells
# T3 sequence (P10721 with tags, fused parts or gaps DEL560-576): as the sequence (P10721 with tags, fused parts or gaps DEL560-576/V654A) above, with A612V counted along it
# Procedure, shortened: as §1
# T1 sequence (P10721 544-976 V654A): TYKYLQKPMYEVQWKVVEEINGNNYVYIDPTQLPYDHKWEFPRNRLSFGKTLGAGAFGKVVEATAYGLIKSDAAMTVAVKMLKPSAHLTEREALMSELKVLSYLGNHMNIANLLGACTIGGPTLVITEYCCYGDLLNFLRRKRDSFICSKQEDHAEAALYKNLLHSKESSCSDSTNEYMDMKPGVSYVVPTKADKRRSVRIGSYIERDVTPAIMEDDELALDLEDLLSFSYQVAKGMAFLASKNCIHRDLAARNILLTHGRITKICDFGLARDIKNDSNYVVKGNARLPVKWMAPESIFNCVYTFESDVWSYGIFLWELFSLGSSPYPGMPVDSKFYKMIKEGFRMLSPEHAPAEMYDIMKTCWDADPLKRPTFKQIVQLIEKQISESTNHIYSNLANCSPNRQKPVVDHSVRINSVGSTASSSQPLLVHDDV
SMILES,IC50 (c-Kit(V654A)) [nM],"efflux ratio at 2 h, 1 μM [1]",IC50 [2] [nM],solubility at 120 min [3] [µM],IC50 [4] [nM]
"c1ccn2c(-c3cc(NCc4ccc(-n5ccnc5)cc4)ncn3)cnc2c1 [A8, (6-Imidazo[1,2-a]23yridine-3-yl-pyrimidin-4-yl)-(4-imidazol-1-yl-benzyl)-amine]",23,< 15,500,≥ 25,–
"COc1ccn2c(-c3cc(NCc4ccc(N5CCCCC5=O)cc4)ncn3)cnc2c1 [A12, 1-(4-{[(6-{7-methoxyimidazo[1,2-a]24yridine-3-yl}pyrimidin-4-yl)amino]methyl}phenyl)piperidin-2-one]",87,–,1100,≥ 25,–
"c1ccn2c(-c3cc(NCc4ccc(C5=NCCN5)cc4)ncn3)cnc2c1 [A15, [4-(4,5-Dihydro-1H-imidazol-2-yl)-benzyl]-(6-imidazo[1,2-a]pyridin-3-yl-pyrimidin-4-yl)-amine]",320,–,–,≥ 25,–
"Cn1cc(-c2ccc(CNc3cc(-c4cnc5cc(OCCN6CCCC6)ccn45)ncn3)cc2)cn1 [A60, [4-(1-methyl-1H-pyrazol-4-yl)-benzyl]-{6-[7-(2-pyrrolidin-1-yl-ethoxy)-imidazo[1,2-a]pyridin-3-yl]-pyrimidin-4-yl}-amine]",8,< 15,70,≥ 25,4.9
"Cn1ncc(-c2ccc(CNc3cc(-c4cnc5cc(OCCN6CCCC6)ccn45)ncn3)cc2)n1 [A73, [4-(2-methyl-2H-[1,2,3]triazol-4-yl)-benzyl]-{6-[7-(2-pyrrolidin-1-yl-ethoxy)-imidazo[1,2-a]pyridin-3-yl]-pyrimidin-4-yl}-amine]",4,< 15,98,≥ 25,–
"Cn1cc(-c2ccc(CNc3cc(-c4cnc5cc(OCCCN6CCCC6)ccn45)ncn3)cc2)cn1 [A75, [4-(1-methyl-1H-pyrazol-4-yl)-benzyl]-{6-[7-(3-pyrrolidin-1-yl-propoxy)-imidazo[1,2-a]pyridin-3-yl]-pyrimidin-4-yl}-amine]",8.5,< 15,59,≥ 25,2.9
"c1cn(-c2ccc(CNc3cc(-c4cnc5cc(OCC6CCN(C7COC7)CC6)ccn45)ncn3)cc2)nn1 [A83, {6-[7-(1-oxetan-3-yl-piperidin-4-ylmethoxy)-imidazo[1,2-a]pyridin-3-yl]-pyrimidin-4-yl}-(4-[1,2,3]triazol-1-yl-benzyl)-amine]",25,–,310,≥ 25,–
"Cn1ncc(-c2ccc(CNc3cc(-c4cnc5cc(OCCCN6CCCC6)ccn45)ncn3)cc2)n1 [A84, [4-(2-methyl-2H-[1,2,3]triazol-4-yl)-benzyl]-{6-[7-(3-pyrrolidin-1-yl-propoxy)-imidazo[1,2-a]pyridin-3-yl]-pyrimidin-4-yl}-amine]",2.8,< 15,45,≥ 25,2.4
"Cn1cc(-c2ccc(CNc3cc(-c4cnc5cc(OCCN6CCC6)ccn45)ncn3)cc2)cn1 [A99, 6-{7-[2-(azetidin-1-yl)ethoxy]imidazo[1,2-a]pyridin-3-yl}-N-{[4-(1-methyl-1H-pyrazol-4-yl)phenyl]methyl}pyrimidin-4-amine]",8.2,15 to 50,62,≥ 25,–

# Now from value to molecule:
IC50 (c-Kit(V654A)) [nM],"efflux ratio at 2 h, 1 μM [1]",IC50 [2] [nM],solubility at 120 min [3] [µM],IC50 [4] [nM],SMILES
9.2,< 15,38,≥ 25,–,"Cn1ncc(-c2ccc(CNc3cc(-c4cnc5cc(OCCN6CCC6)ccn45)ncn3)cc2)n1 [A100, 6-{7-[2-(azetidin-1-yl)ethoxy]imidazo[1,2-a]pyridin-3-yl}-N-{[4-(2-methyl-2H-1,2,3-triazol-4-yl)phenyl]methyl}pyrimidin-4-amine]"
6.2,–,270,≥ 25,–,"c1ccn2c(-c3cc(NCc4ccc(N5CC6CC6C5)nc4)ncn3)cnc2c1 (stereo not drawn) [A149, [6-(3-aza-bicyclo[3.1.0]hex-3-yl)-pyridin-3-ylmethyl]-(6-imidazo[1,2-a]pyridin-3-yl-pyrimidin-4-yl)-amine]"
180,–,–,≥ 25,–,"Cc1cc(N2CCCC2)ncc1CNc1cc(-c2cnc3ccccn23)ncn1 [A154, (6-imidazo[1,2-a]pyridin-3-yl-pyrimidin-4-yl)-(4-methyl-6-pyrrolidin-1-yl-pyridin-3-ylmethyl)-amine]"
180,–,–,≥ 25,–,"Cc1cc(N2CC[C@@H](F)C2)ncc1CNc1cc(-c2cnc3ccccn23)ncn1 [A156, [6-((R)-3-fluoro-pyrrolidin-1-yl)-4-methyl-pyridin-3-ylmethyl]-(6-imidazo[1,2-a]pyridin-3-yl-pyrimidin-4-yl)-amine]"
27,< 15,630,≥ 25,–,"Cn1cc(-c2ccc(CNc3cc(-c4cnc5cc(CCN6CCCC6)ccn45)ncn3)cc2)cn1 [A168, [4-(1-methyl-1H-pyrazol-4-yl)-benzyl]-{6-[7-(2-pyrrolidin-1-yl-ethyl)-imidazo[1,2-a]pyridin-3-yl]-pyrimidin-4-yl}-amine]"
33,–,330,≥ 25,–,"Cn1cc(-c2ccc(CNc3cc(-c4cnc5cc(CCN6CCN(C7COC7)CC6)ccn45)ncn3)cc2)cn1 [A170, [4-(1-methyl-1H-pyrazol-4-yl)-benzyl]-(6-{7-[2-(4-oxetan-3-yl-piperazin-1-yl)-ethyl]-imidazo[1,2-a]pyridin-3-yl}-pyrimidin-4-yl)-amine]"
7.3,> 50,210,≥ 25,–,"Cn1cc(-c2ccc(CNc3cc(-c4cnc5cc(OCCN6CCN7CCC6C7)ccn45)ncn3)cc2)cn1 (stereo not drawn) [A212, (6-{7-[2-(1,4-diaza-bicyclo[3.2.1]oct-4-yl)-ethoxy]-imidazo[1,2-a]pyridin-3-yl}-pyrimidin-4-yl)-[4-(1-methyl-1H-pyrazol-4-yl)-benzyl]-amine]"
1.1,< 15,10000,≥ 25,–,"Cc1nc(-c2ccc(CNc3cc(-c4cnc5cc(OCCCN6CCCC6)ccn45)ncn3)cc2)co1 [A242, [4-(2-methyl-oxazol-4-yl)-benzyl]-{6-[7-(3-pyrrolidin-1-yl-propoxy)-imidazo[1,2-a]pyridin-3-yl]-pyrimidin-4-yl}-amine]"
2.2,< 15,47,≥ 25,–,"c1nc(NCc2ccc(-c3cocn3)cc2)cc(-c2cnc3cc(OCCCN4CCCC4)ccn23)n1 [A252, (4-oxazol-4-yl-benzyl)-{6-[7-(3-pyrrolidin-1-yl-propoxy)-imidazo[1,2-a]pyridin-3-yl]-pyrimidin-4-yl}-amine]"
11,< 15,140,–,10,"CNC1CN(c2ccn3c(-c4cc(NCc5ccc(-c6cnn(C)c6)cc5)ncn4)cnc3c2)C1 [A268, N-{[4-(1-methyl-1H-pyrazol-4-yl)phenyl]methyl}-6-{7-[3-(methylamino)azetidin-1-yl]imidazo[1,2-a]pyridin-3-yl}pyrimidin-4-amine]"
